In PubChem BioAssay (NCI):
Several values for one entry are separate records, joined by “and”; a condition that tells them apart may be missing. Identical values can stand only once.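 Protocol summary: plate cells (96-well), add compound at 5 concentrations, incubate 48 h, interpolate endpoints linearly. Abbreviation: GI50, concentration required for 50% inhibition of growth. TGI denotes the concentration required for complete inhibition of growth.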

Columns and labels:
Experiment in all cases: NCI-60 cell line screen, 48 h
SNB-19 CNS = tested on: SNB-19 CNS
U251 CNS = tested on: U251 CNS
SW-620 colon = tested on: SW-620 colon
MDA-MB-231 breast = tested on: MDA-MB-231 breast
SF-539 CNS = tested on: SF-539 CNS
CCRF-CEM leukemia = tested on: CCRF-CEM leukemia
NCI-H460 lung = tested on: NCI-H460 lung
MOLT-4 leukemia = tested on: MOLT-4 leukemia
OVCAR-3 ovarian = tested on: OVCAR-3 ovarian
UACC-62 melanoma = tested on: UACC-62 melanoma

Row | SMILES | TGI (SNB-19 CNS) [µM] | TGI (U251 CNS) [µM] | TGI (SW-620 colon) [µM] | TGI (MDA-MB-231 breast) [µM] | TGI (SF-539 CNS) [µM] | TGI (CCRF-CEM leukemia) [µM] | TGI (NCI-H460 lung) [µM] | TGI (MOLT-4 leukemia) [µM] | TGI (OVCAR-3 ovarian) [µM] | TGI (UACC-62 melanoma) [µM] | GI50 (SNB-19 CNS) | GI50 (U251 CNS) | GI50 (CCRF-CEM leukemia) [µM]
1 | COC(=O)/C1=C/C=C\C[C@@]2(C)CC(c3ccoc3)OC(=O)[C@@H]2CC[C@H]1C (stereo partly specified) | > 25 | > 25 | > 25 | > 25 | > 25 | > 25 | > 25 | > 25 | > 25 | > 25 | – | – | –
2 | COc1cc2nc(-c3cccs3)nc(Nc3ccccc3C(=O)NN)c2cc1OC | > 100 | > 100 | > 100 | > 100 | > 100 | > 100 | > 100 | > 100 | > 100 | > 100 | – | – | –
3 | CC(C)OC1=C(CC2(C)OCCO2)C(=O)C12OCCO2 | > 100 | > 100 | > 100 | > 100 | > 100 | > 100 | > 100 | > 100 | > 100 | > 100 | – | – | –
4 | Cc1cc2nc3c(C#N)c(C)c(CCCl)c(Cl)n3c2cc1C | 36.3 | > 60.9 | 5.79 | 3.66 | 5.09 | 7.38 | > 36.6 | 6.95 | 3.56 | 4.12 | – | – | –
5 | CC1(C)CCCCCC(O)C(O)CCC(C)(C)C1=O (stereo unspecified) | > 100 | > 100 | > 100 | > 100 | > 100 | > 100 | > 100 | > 100 | > 100 | > 100 | – | – | –
6 | NC(=Nc1ccccc1)N/N=C/c1c[nH]c2ccccc12 | 14.8 | 2.61 | 5.02 | 6.83 | 1.92 | 41 | 4.41 | 48.4 | 0.314 | 6.84 | – | – | –
7 | N#Cc1ccc(-c2ccc(Cl)cc2)n(C2OC(CO)C(O)C(O)C2O)c1=S (stereo unspecified) | > 100 | > 100 | > 100 | > 100 | > 100 | > 100 | > 100 | > 100 | > 100 | > 100 | > 100 µM and 26.4 µM | > 100 µM and 20 µM | > 100
8 | COC(=O)NC(Cc1ccccc1)NC(=O)OC(C)(C)C (stereo unspecified) | > 100 | > 100 | > 100 | > 100 | > 100 | > 100 | > 100 | > 100 | > 100 | > 100 | – | – | –
9 | Cc1ccc(C)n1-c1ccccc1C1C=Cn2c(=O)oc3c(OC(C)C)c(OC(C)C)c(O)c1c32 (stereo unspecified) | > 100 | > 100 | 75.6 | 78.8 | > 100 | > 100 | > 100 | > 100 | > 100 | > 100 | – | – | –
10 | O=C(CCCCCNC(=O)c1ccc(Cl)cc1)NO | > 100 | 24 | > 100 | 21 | > 100 | > 100 | 39.6 | > 100 | 13 | 12.1 | – | – | –
11 | COC1C(O)C(C)OC(O[C@H]2CC[C@@]3(C)C(CC[C@@H]4[C@@H]3CC[C@]3(C)[C@@H](C(C)OC5OC(CO)C(O)C(O)C5O)CC[C@]43O)C2)C1O (stereo partly specified) | > 25 | > 25 | > 25 | > 25 | > 25 | > 25 | > 25 | > 25 | > 25 | > 25 | – | – | –
12 | O=c1oc2ccccc2c(O)c1C(c1ccc(OCc2ccccc2)cc1)c1c(O)c2ccccc2oc1=O | > 100 | > 100 | > 100 | 69.2 | > 100 | > 100 | > 100 | > 100 | > 100 | > 100 | – | – | –
13 | CCOc1ccc2c(c1)C(/C(C(Cl)=C(Cl)Cl)=[N+](/[O-])OC(=O)c1ccccc1)=N2 | > 100 | > 100 | > 100 | > 100 | > 100 | > 100 | > 100 | > 100 | > 100 | > 100 | – | – | –
14 | COc1ccc(C2N(c3ccc(C)c(N=C=O)c3)C(=O)N3C(c4ccc(OC)cc4)N(c4ccc(C)c(N=C=O)c4)C(=O)N23)cc1 (stereo unspecified) | > 100 | > 100 | > 100 | > 100 | > 100 | > 100 | > 100 | > 100 | > 100 | – | – | – | –
15 | Cc1nc(N)c(N2CCN(S(=O)(=O)N(Cc3ccccc3)Cc3ccccc3)CC2)c(=O)[nH]1 | 74.7 | 36.8 | > 100 | > 100 | 80.6 | > 100 | > 100 | > 100 | 73.8 | – | – | – | –
